How the values were obtained:
OXPHOS = assay: Pre- and post-treatment biopsies of patients receiving cancer therapies; type: in vivo; conditions: for Effect of therapy on OXPHOS, post-treatment versus pre-treatment biopsies: across cancers, named as the most significant therapies
Excerpt: Biopsies were collected from subjects undergoing treatment for cancer (FIG. 1A).

[1] = test system: Patient derived xenograft cells; assay: Growth of patient derived xenograft cells treated in vitro; type: cell-based; conditions: in vitro exposure of patient-derived xenograft cells to gemcitabine; FIG. 2
Description: Patient derived xenograft cells were treated with the compound of Formula 1, Gemcitabine (Gem), or the compound of Formula 1 and gemcitabine together (FIG. 2). Cells treated with both Gem and Formula 1 grew slower than cells treated with Formula 1 or Gem alone.

N#Cc1ccc(C(c2ccc(C#N)cc2)n2cncn2)cc1 [letrozole]
Effect of therapy on OXPHOS, post-treatment versus pre-treatment biopsies (OXPHOS): increase OXPHOS
OXPHOS following treatment (OXPHOS; breast cancer, FIG. 1E): increase in OXPHOS

O=P1(N(CCCl)CCCl)NCCCO1 (centres unmarked) [cyclophosphamide]
Effect of therapy on OXPHOS, post-treatment versus pre-treatment biopsies (OXPHOS): increase OXPHOS
OXPHOS following treatment (OXPHOS; breast cancer and sarcoma, FIG. 1F): increase in OXPHOS

CNC(=O)c1ccc(N2C(=S)N(c3ccc(C#N)c(C(F)(F)F)c3)C(=O)C2(C)C)cc1F [enzalutamide]
Effect of therapy on OXPHOS, post-treatment versus pre-treatment biopsies (OXPHOS): increase OXPHOS
OXPHOS following treatment (OXPHOS; prostate cancer, FIG. 1D): increase in OXPHOS

CC(=O)O[C@H]1C(=O)[C@@]2(C)[C@H]([C@H](OC(=O)c3ccccc3)[C@]3(O)C[C@H](OC(=O)[C@H](O)[C@@H](NC(=O)c4ccccc4)c4ccccc4)C(C)=C1C3(C)C)[C@]1(OC(C)=O)CO[C@@H]1C[C@@H]2O [paclitaxel]
Effect of therapy on OXPHOS, post-treatment versus pre-treatment biopsies (OXPHOS): increase OXPHOS
OXPHOS following treatment (OXPHOS; breast cancer, endometrial cancer, NSCLC, ovarian cancer, FIG. 1I): increase in OXPHOS

N.N.O=C([O-])C1(C(=O)[O-])CCC1.[Pt+2] [carboplatin]
Effect of therapy on OXPHOS, post-treatment versus pre-treatment biopsies (OXPHOS): increase OXPHOS
OXPHOS following treatment (OXPHOS; breast cancer, endometrial cancer, NSCLC, ovarian cancer, FIG. 1G): increase in OXPHOS

Nc1ccn([C@@H]2O[C@H](CO)[C@@H](O)C2(F)F)c(=O)n1 [gemcitabine, Gemcitabine]
Sensitization of tumor cells to the compound of Formula 1 [1]: sensitizes tumor cells to the compound of Formula 1

CCNC(=O)[C@@H]1CCCN1C(=O)[C@H](CCCNC(=N)N)NC(=O)[C@H](CC(C)C)NC(=O)[C@@H](CC(C)C)NC(=O)[C@H](Cc1ccc(O)cc1)NC(=O)[C@H](CO)NC(=O)[C@H](Cc1c[nH]c2ccccc12)NC(=O)[C@H](Cc1c[nH]cn1)NC(=O)[C@@H]1CCC(=O)N1 [leuprolide]
Effect of therapy on OXPHOS, post-treatment versus pre-treatment biopsies (OXPHOS): increase OXPHOS
OXPHOS following treatment (OXPHOS; breast cancer and prostate cancer, FIG. 1C): increase in OXPHOS

C[C@]12CC[C@@H]3c4ccc(O)cc4C[C@@H](CCCCCCCCC[S+]([O-])CCCC(F)(F)C(F)(F)F)[C@H]3[C@@H]1CC[C@@H]2O (some centres unmarked) [fulvestrant]
Effect of therapy on OXPHOS, post-treatment versus pre-treatment biopsies (OXPHOS): increase OXPHOS
OXPHOS following treatment (OXPHOS; breast cancer, FIG. 1E): increase in OXPHOS

COc1cccc2c1C(=O)c1c(O)c3c(c(O)c1C2=O)C[C@@](O)(C(=O)CO)C[C@@H]3O[C@H]1C[C@H](N)[C@H](O)[C@H](C)O1 [doxorubicin]
Effect of therapy on OXPHOS, post-treatment versus pre-treatment biopsies (OXPHOS): increase OXPHOS
OXPHOS following treatment (OXPHOS; bladder cancer, breast cancer, sarcoma, FIG. 1H): increase in OXPHOS

Source: patent US20250170096A1, “OXPHOS INHIBITORS FOR USE IN TREATING CANCER” (ImmunoMet Therapeutics, Inc., priority 2022, published 2025)
